Experimental data: ChEMBL document CHEMBL3739262, “Flavones Inhibit the Activity of AKR1B10, a Promising Therapeutic Target for Cancer Treatment” (J Nat Prod, 2015)
pEC50, pIC50, pKi: −log10 of the molar value. The source made the active and inactive calls. The calls are words filed in the database; no cut-off is given here.

Experiments:
[1] = biological target: T1, Aldo-keto reductase family 1 member B10 (Homo sapiens, UniProt O60218); assay: Inhibition of recombinant human AKR1B10 expressed in human HCT116 cells assessed as reduction in daunorubicinol production using daunorubicin as substrate at 20 uM incubated for 4 to 8 hrs by UHPLC based transient transfection assay; type: cell-based; details: HCT-116
Target sequence in this assay (O60218 whole entry, looked up): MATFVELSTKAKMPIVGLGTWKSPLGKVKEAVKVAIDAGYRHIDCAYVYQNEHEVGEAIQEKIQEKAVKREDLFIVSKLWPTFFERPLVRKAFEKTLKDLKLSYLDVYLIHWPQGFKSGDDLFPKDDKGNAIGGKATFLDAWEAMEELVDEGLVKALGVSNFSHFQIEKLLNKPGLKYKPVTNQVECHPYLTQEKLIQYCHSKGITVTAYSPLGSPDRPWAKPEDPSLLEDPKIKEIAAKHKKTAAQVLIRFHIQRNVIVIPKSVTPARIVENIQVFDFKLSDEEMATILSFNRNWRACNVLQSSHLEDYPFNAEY

[2] = biological target: T1, Aldo-keto reductase family 1 member B10; assay: Inhibition of recombinant human N-terminal His6-tagged AKR1B10 expressed in Escherichia coli BL21 cells using all-trans-retinal as substrate at 20 uM incubated for 15 mins by HPLC method
Target sequence in this assay (O60218 whole entry, looked up): as above

[3] = biological target: T1, Aldo-keto reductase family 1 member B10; assay: Inhibition of recombinant human AKR1B10 expressed in human HCT116 cells assessed as reduction in daunorubicinol production using daunorubicin as substrate at 10 uM incubated for 4 to 8 hrs by UHPLC based transient transfection assay; type: cell-based; details: HCT-116
Target sequence in this assay (O60218 whole entry, looked up): as above

[4] = biological target: T1, Aldo-keto reductase family 1 member B10; assay: Inhibition of recombinant human N-terminal His6-tagged AKR1B10 expressed in Escherichia coli BL21 cells using all-trans-retinal as substrate incubated for 15 mins by HPLC method
Target sequence in this assay (O60218 whole entry): as the sequence (O60218 whole entry, looked up) above

[5] = biological target: Aldo-keto reductase family 1 member B1 (Homo sapiens, UniProt P15121); assay: Inhibition of recombinant N-terminal His6-tagged AKR1B1 (unknown origin) expressed in Escherichia coli BL21 cells using all-trans-retinal as substrate incubated for 15 mins by HPLC method
[6] = biological target: T1, Aldo-keto reductase family 1 member B10; assay: Inhibition of recombinant human AKR1B10 expressed in human HCT116 cells assessed as reduction in daunorubicinol production using daunorubicin as substrate incubated for 4 to 8 hrs by UHPLC based transient transfection assay; type: cell-based; details: HCT-116
Target sequence in this assay (O60218 whole entry, looked up): as above

[7] = Cytotoxicity against human HCT116 cells assessed as cell viability after 72 hrs by MTT assay; type: cell-based; details: HCT-116, 72 h
[8] = biological target: T1, Aldo-keto reductase family 1 member B10; assay: Potency index, ratio of IC50 for flufenamic acid to IC50 for text compound for inhibition of recombinant human N-terminal His6-tagged AKR1B10 expressed in Escherichia coli BL21 cells using all-trans-retinal as substrate incubated for 15 mins by HPLC method
Target sequence in this assay (O60218 whole entry, looked up): as above

[9] = biological target: T1, Aldo-keto reductase family 1 member B10; assay: Inhibition of recombinant human N-terminal His6-tagged AKR1B10 expressed in Escherichia coli BL21 cells using daunorubicin as substrate incubated for 20 mins by UHPLC method
Target sequence in this assay (O60218 whole entry): as the sequence (O60218 whole entry, looked up) above

[10] = biological target: T1, Aldo-keto reductase family 1 member B10; assay: Non-competitive inhibition of recombinant human N-terminal His6-tagged AKR1B10 expressed in Escherichia coli BL21 cells using all-trans-retinal as substrate incubated for 15 mins by Lineweaver-Burk plot analysis
Target sequence in this assay (O60218 whole entry): as the sequence (O60218 whole entry, looked up) above

In the case of `O=c1c(O)c(-c2ccc(O)c(O)c2)oc2cc(O)cc(O)c12`, the inhibition [1] was 23%, the inhibition [2] was “Active” and the inhibition [3] was 18%.
With `O=c1c(-c2ccc(O)cc2)coc2cc(O)ccc12` [DAIDZEIN] the inhibition [2] was “Active”, the pIC50 [4] was 4.49 and the pIC50 [5] was 3.79.
In the case of `C[C@@H]1O[C@@H](Oc2c(-c3ccc(O)c(O)c3)oc3cc(O)cc(O)c3c2=O)[C@H](O)[C@H](O)[C@H]1O`, the inhibition [2] was “Active”.
In the case of `O=C1CC(c2ccc(O)cc2)Oc2ccccc21` (stereo unspecified), the inhibition [2] was “Active”.
With `O=C(O)c1ccc(O)cc1` the inhibition [2] was “Active”.
For `O=C(O)/C=C/c1ccc(O)c(O)c1`, the inhibition [2] was “Active”.
For `COc1ccc(-c2coc3cc(O)cc(O)c3c2=O)cc1` [BIOCHANIN], the inhibition [2] was “Active”, the pIC50 [4] was 4.44 and the pIC50 [5] was 3.90.
With `O=c1c(O)c(-c2ccccc2)oc2ccccc12` the inhibition [2] was “Active”.
For `O=C(O)c1ccccc1Nc1cccc(C(F)(F)F)c1` [FLUFENAMIC ACID], the inhibition [2] was “Active”, the inhibition [6] was “inactive” and the pIC50 [4] was 4.02.
In the case of `O=C1c2c(O)cc(O)cc2O[C@H](c2ccc(O)c(O)c2)[C@H]1O`, the inhibition [2] was “Active”.
With `O=C(/C=C/c1ccc(O)c(O)c1)O[C@@H]1C[C@](O)(C(=O)O)C[C@@H](O)[C@H]1O` the inhibition [2] was “Active”.
For `O=c1cc(-c2ccccc2)oc2cc(O)ccc12` [7-HYDROXYFLAVONE], the inhibition [1] was 19%, the pEC50 [7] was less than 4.30 and the inhibition [2] was “Active”. For the same molecule, the Ratio IC50 [8] was 10, the pIC50 [9] was 3.80 and the pIC50 [4] was 5.08. The pIC50 [5] was 4.91.
For `O=C(O[C@@H]1Cc2c(O)cc(O)cc2O[C@@H]1c1cc(O)c(O)c(O)c1)c1cc(O)c(O)c(O)c1`, the inhibition [2] was “Active”.
For `COc1cc([C@H]2Oc3cc([C@H]4Oc5cc(O)c(O)cc5C(=O)[C@@H]4O)ccc3O[C@@H]2CO)ccc1O`, the inhibition [2] was “Active”.
With `O=c1cc(-c2ccc(O)c(O)c2)oc2cc(O)cc(O)c12` [LUTEOLIN] the inhibition [1] was 33%, the pEC50 [7] was 4.57 and the inhibition [2] was “Active”. It also gave a pIC50 [9] of 3.97 and a pIC50 [4] of 5.04.
With `O=c1cc(-c2ccccc2)oc2cccc(O)c12` the inhibition [2] was “Active”.
In the case of `Oc1cc(O)c2c(c1)O[C@H](c1ccc(O)c(O)c1)[C@@H](O)C2`, the inhibition [2] was “Active”.
In the case of `O=C1CC(c2ccccc2O)Oc2ccccc21` (stereo unspecified), the inhibition [2] was “Active”.
In the case of `C[C@@H]1O[C@@H](OC[C@H]2O[C@@H](Oc3c(-c4ccc(O)c(O)c4)oc4cc(O)cc(O)c4c3=O)[C@H](O)[C@@H](O)[C@@H]2O)[C@H](O)[C@H](O)[C@H]1O`, the inhibition [2] was “Active”.
Work on `O=c1cc(-c2ccc(O)cc2)oc2cc(O)cc(O)c12` [APIGENIN] yielded an inhibition [1] of 34%, a pEC50 [7] of 4.62 and a pKi [10] of 5.22. For the same molecule, the inhibition [2] was “Active”, the inhibition [3] was 25% and the Ratio IC50 [8] was 10. For the same molecule, the pIC50 [9] was 4.43, the pIC50 [4] was 5.18 and the pIC50 [5] was 4.92.
For `O=C1C[C@@H](c2ccc(O)cc2)Oc2cc(O)cc(O)c21`, the inhibition [2] was “Active”.
With `COc1ccc([C@@H]2CC(=O)c3c(O)cc(O)cc3O2)cc1O` the inhibition [2] was “Active”.
In the case of `O=C(CCc1ccc(O)cc1)c1c(O)cc(O)cc1O[C@@H]1O[C@H](CO)[C@@H](O)[C@H](O)[C@H]1O`, the inhibition [2] was “Active”.
With `O=c1c(O)c(-c2ccc(O)cc2O)oc2cc(O)cc(O)c12` the inhibition [2] was “Active”.
For `O=c1cc(-c2ccc(O)cc2)oc2c([C@@H]3O[C@H](CO)[C@@H](O)[C@H](O)[C@H]3O)c(O)cc(O)c12`, the inhibition [2] was “Active”.
